According to patent EP0421819A1, “Therapeutic nucleosides” (THE WELLCOME FOUNDATION LIMITED, priority 1989, dated 1991):
“Also recorded” adds a separate entry of the source.

Tests used:
Type in all cases: cell-based
Hepatitis B Virus (HBV) = assay: Antiviral activity against HBV in the HBV producer cell line HepG2 2.2.15 (Dane particle DNA and intracellular replicative intermediates); conditions: for anti-HBV activity: general statement in the description, no concentration given
Description: The human HBV producer cell line of HepG2, 2.2 15, described and characterised by Sells et al., PNAS 84:1005, 1987 and J. Virol. […] This cell line was utilised in vitro to identify compounds with anti-HBV activity.
To test compounds for antiviral activity, monolayer cultures were treated with compound, 50-200 µM, for ten days. Supernatant media containing extracellular virion DNA (Dane particles), were harvested on days three, six and ten, treated with proteinase K(1 mg/mL) and sodium dodecyl sulfate (1%), and incubated at 50 °C for one hour. DNA was extracted with equal volumes of phenol followed by chloroform and then precipitated by ammonium acetate and propanol. The DNA precipitate was dissolved and collected on nitrocellulose using the procedure of Schieicher and Schuell (S & S, 10 Optical Ave., Keene, NH 03431, Publication #700, 1987), and treated as described by Southern, J. Mol. Biol. 98:503, 1975. Cells were harvested, and the intracellular DNA was obtained after cell lysis with guanidine isothiocyanate. The intracellular DNA was handled in the same manner as the extracellular DNA. After precipitation by ammonium acetate and propanol, the intracellular DNA precipitate was dissolved, cut by restriction endonuclease, Hind III, applied to agarose gel and then treated as described by Southern to determine the quantity of replicative intermediate forms. The antiviral effect of the drug was determined by measuring at least a 100-fold reduction of the amount of Dane particles extruded into the culture and a similar decrease in the intracellular replicative intermediates.

HIV-1 = assay: Anti-HIV activity by the method of Averett (J.Virol.Methods 23, 263-276); conditions: against HIV-1; n=7; read-out: average IC₅₀
Description: (§1) Anti-HIV activity was determined by the method of Averett, D.R., J.Virol.Methods, 23 263-276 (1989).

HIV-2 = assay: as above; conditions: against HIV-2; n=6; read-out: average IC₅₀
Description: as §1

HIV = assay: Activity against HIV infections (general statement, no method given at that place); conditions: general statement in the description

Row | Compound | anti-HBV activity (Hepatitis B Virus (HBV)) | inhibition of HBV (Hepatitis B Virus (HBV); at 100 µM, monolayer cultures treated for ten days) | anti-HBV activity (Hepatitis B Virus (HBV); listed as Compound 41) | IC50 (HIV-1) | IC50 (HIV-2) | activity against HIV infections (HIV)
1 | CCCOc1nc(N)nc2c1ncn2[C@H]1CC[C@@H](CO)O1 [Compound 9, 2-Amino-6-n-propoxypurine-9-β-D-2′,3′-dideoxyribofuranoside] | surprisingly high | – | – | – | – | –
2 | Nc1nc(NC2CC2)c2ncn([C@H]3CC[C@@H](CO)O3)c2n1 [Compound 34, 2-Amino-6-cyclopropylaminopurine-9-β-D-2,′3′-dideoxyribofuranoside] | surprisingly high | – | – | – | – | –
3 | Nc1nc(NCC2CC2)c2ncn([C@H]3CC[C@@H](CO)O3)c2n1 [Example 42, 2-Amino-6-(cyclopropylmethylamino)purine-9-β-D-2′,3′-dideoxy ribofuranoside] | – | strong inhibition | surprisingly high; also recorded: exceptionally potent activity | 17.7 µM | 13.3 µM | exceptionally potent activity
